Data: ChEMBL document CHEMBL1201862, “PubChem BioAssay data set” (2004)
Active and inactive are the calls of the source.

Legend:
Cytochrome P450 1A2 = target: T1, Cytochrome P450 1A2 (Homo sapiens, UniProt P05177);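 note: PubChem cytochrome P450 panel assay, CYP1A2 panel member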
T1 sequence (P05177 whole entry): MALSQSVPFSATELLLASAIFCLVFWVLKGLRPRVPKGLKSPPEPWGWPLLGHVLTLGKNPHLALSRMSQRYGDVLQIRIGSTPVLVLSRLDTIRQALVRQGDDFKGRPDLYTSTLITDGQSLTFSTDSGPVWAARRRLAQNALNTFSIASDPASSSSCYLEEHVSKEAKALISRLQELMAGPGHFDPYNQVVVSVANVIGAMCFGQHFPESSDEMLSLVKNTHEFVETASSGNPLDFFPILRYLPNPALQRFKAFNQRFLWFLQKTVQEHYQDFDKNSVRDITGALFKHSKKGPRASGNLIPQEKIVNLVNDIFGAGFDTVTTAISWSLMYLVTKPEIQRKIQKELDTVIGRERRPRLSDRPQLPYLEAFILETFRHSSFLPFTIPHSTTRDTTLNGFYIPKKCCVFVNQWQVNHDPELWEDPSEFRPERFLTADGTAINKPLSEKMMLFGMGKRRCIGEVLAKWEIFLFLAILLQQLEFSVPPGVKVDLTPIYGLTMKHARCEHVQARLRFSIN

Cytochrome P450 2D6 = Cytochrome P450 2D6 (Homo sapiens, UniProt P10635);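 note: CYP2D6 member of a cytochrome P450 panel assay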
[1] = cytotoxicity in HEK-293T NF-kB-Luc cells, dose response, cytotoxicity control for B/T-cell NF-kB inhibitor project, cell-based, uHTS hits (AID 489019); assay type: functional;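 note: IC50 reflects cytotoxicity as loss of cell viability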
[2] = target: T2, Microphthalmia-associated transcription factor (Homo sapiens, UniProt O75030); test: TRPM1 promoter luciferase signal decrease, dose response, MITF inhibitor project, cell-based, SK-MEL-5, cherry-picked, set 3 (AID 493073); assay type: functional
T2 sequence (O75030 whole entry): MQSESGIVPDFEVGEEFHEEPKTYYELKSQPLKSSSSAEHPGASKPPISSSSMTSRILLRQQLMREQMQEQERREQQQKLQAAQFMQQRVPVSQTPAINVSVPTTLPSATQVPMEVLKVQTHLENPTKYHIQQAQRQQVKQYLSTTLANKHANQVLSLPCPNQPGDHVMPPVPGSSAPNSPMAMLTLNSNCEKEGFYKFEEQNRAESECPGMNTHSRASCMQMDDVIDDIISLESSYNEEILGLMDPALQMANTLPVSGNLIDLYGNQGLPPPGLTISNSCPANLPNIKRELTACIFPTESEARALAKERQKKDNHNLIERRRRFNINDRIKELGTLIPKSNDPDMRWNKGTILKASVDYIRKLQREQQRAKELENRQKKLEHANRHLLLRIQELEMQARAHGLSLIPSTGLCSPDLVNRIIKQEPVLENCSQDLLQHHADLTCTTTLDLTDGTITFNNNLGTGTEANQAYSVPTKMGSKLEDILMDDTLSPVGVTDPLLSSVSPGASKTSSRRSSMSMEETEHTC

INS1 = test: beta cell apoptosis inhibitors, cytokine rescue, dose response, luminescence, retest (AID 449756); assay type: functional, cell-based; settings: Rattus norvegicus;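 note: cell death triggered by IL-1 beta plus TNF-alpha plus IFN-gamma mixture; protective hits raise ATP signal compared with cytokine alone wells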
[3] = NIH-3T3 fibroblast cytotoxicity, dose response, cytotoxicity control, cell-based, fluorescence, Alamar Blue, secondary assay (AID 2327); assay type: functional;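 note: NIH-3T3 mouse fibroblasts cultured with fluconazole at 8 µg/mL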
[4] = C. albicans growth with fluconazole, confirmation, fluorescence, retest (AID 2467); assay type: functional, cell-based
Jurkat = test: antigen receptor-induced NF-kB inhibitors, dose response, Jurkat, luciferase reporter, luminescence, B- and T-cell (AID 489004); assay type: functional, cell-based; settings: Homo sapiens;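 note: NF-kB luciferase reporter Jurkat cells stimulated with PMA plus ionomycin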
A-375 = test: MITF: Counter assay: A375 proliferation Measured in Cell-Based System Using Plate Reader - 2084-03_Inhibitor_Dose_DryPowder_Activity. [Related pubchem assays (depositor defined):AID488944]; assay type: functional; settings: Homo sapiens
Oxytocin receptor = Oxytocin receptor (Homo sapiens, UniProt P30559); test: Counterscreen for vasopressin 1 receptor (V1R) agonists: Fluorescence-based cell-based high throughput dose response assay for agonists of the Oxytocin Receptor (OXTR). [Related pubchem assays: 2435 (Primary screen (OXTR agonists in singlicate)), 434964 (Confirmation screen (V1R agonists in triplicate)), 434969 (Counterscreen (OXTR agonists in …; assay type: functional
H4 = test: Luminescence Cell-Based Dose Response HTS to Identify Activators of 5'UTR Stem-Loop Driven Prion Protein mRNA Translation in H4 Neuroglioblastoma Cells. [Related pubchem assays: 1829 (Project Summary), 1814 (Primary HTS)]; assay type: functional; settings: Homo sapiens
[5] = target: T3, RNA-binding protein pos-1 (Caenorhabditis elegans, UniProt G5EF15); test: inhibitors of POS-1/mex-3 RNA binding, dose response, biochemical, fluorescence polarization (AID 1964);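 note: purified POS-1 fused to maltose binding protein made in E. coli; potency of compounds blocking POS-1 binding to fluorescent RNA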
T3 sequence (G5EF15 whole entry): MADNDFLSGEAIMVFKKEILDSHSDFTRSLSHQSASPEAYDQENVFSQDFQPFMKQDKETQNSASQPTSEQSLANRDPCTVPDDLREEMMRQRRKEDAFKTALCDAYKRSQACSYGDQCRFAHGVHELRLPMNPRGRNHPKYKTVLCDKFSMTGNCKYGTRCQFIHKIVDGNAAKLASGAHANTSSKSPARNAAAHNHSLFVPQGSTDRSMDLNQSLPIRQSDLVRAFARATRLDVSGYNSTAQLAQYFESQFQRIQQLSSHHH

[6] = target: T4, Zinc finger protein mex-5 (Caenorhabditis elegans, UniProt Q9XUB2); test: MEX-5/TCR-2 RNA interaction inhibitors, dose response, biochemical, C. elegans, fluorescence polarization (AID 1960)
T4 sequence (Q9XUB2 whole entry): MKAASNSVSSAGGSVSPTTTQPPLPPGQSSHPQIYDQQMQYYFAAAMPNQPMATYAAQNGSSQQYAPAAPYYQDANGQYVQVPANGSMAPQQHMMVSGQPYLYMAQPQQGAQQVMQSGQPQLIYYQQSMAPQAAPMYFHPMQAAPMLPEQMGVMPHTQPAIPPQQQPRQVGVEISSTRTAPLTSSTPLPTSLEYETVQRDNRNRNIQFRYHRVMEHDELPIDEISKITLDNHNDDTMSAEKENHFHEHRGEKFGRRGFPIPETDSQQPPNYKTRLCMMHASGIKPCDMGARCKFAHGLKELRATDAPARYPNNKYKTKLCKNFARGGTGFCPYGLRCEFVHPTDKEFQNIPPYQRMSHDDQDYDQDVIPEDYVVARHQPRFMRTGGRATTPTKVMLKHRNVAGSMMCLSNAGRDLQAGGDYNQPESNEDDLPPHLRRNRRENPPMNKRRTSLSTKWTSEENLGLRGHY

[7] = growth suppression of beta-catenin-knockout colon cells, dose response, cell-based, HCT116, human colon tumor (AID 1045); assay type: functional;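 note: HCT116 colon tumor cells with beta catenin knocked out; cells exposed to compound for 60 hours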
[8] = Luminescence Cell-Based Dose Response HTS to Identify Activators of Luciferase Translation or Activity in H4 […] Cells. [Related pubchem assays: 1829 (Project Summary), 1814 (Primary HTS)]; assay type: functional
[9] = Luminescence Cell-Based Dose Confirmation HTS to Identify Activators of 5'UTR Stem-Loop Driven Alpha-Synuclein mRNA Translation in H4 Neuroglioblastoma Cells. [Related pubchem assays: 1829 (Project Summary), 1814 (Primary HTS)]; assay type: functional
[10] = target: UDP-galactopyranose mutase (Mycobacterium tuberculosis, UniProt P9WIQ1); test: Inhibitors of Mycobacterium tuberculosis UDP-galactopyranose mutase (UGM) enzyme Measured in Biochemical System Using Plate Reader - 2105-02_Inhibitor_Dose_CherryPick_Activity. [Related pubchem assays (depositor defined):AID504439]
[11] = growth suppression of PTEN-null colon cells, dose response, cell-based, HCT116 PTEN knockout (AID 1047); assay type: functional;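 note: HCT116 colon tumor cells with PTEN knocked out; cells exposed to compound for 60 hours before readout; potency for loss of cell viability measured by luminescence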
Vasopressin V1a receptor = Vasopressin V1a receptor (Homo sapiens, UniProt P37288); test: Fluorescence-based cell-based high throughput dose response screening assay for agonists of the vasopressin 1 receptor (V1R).; assay type: functional
Sequence of Vasopressin V1a receptor (P37288 whole entry): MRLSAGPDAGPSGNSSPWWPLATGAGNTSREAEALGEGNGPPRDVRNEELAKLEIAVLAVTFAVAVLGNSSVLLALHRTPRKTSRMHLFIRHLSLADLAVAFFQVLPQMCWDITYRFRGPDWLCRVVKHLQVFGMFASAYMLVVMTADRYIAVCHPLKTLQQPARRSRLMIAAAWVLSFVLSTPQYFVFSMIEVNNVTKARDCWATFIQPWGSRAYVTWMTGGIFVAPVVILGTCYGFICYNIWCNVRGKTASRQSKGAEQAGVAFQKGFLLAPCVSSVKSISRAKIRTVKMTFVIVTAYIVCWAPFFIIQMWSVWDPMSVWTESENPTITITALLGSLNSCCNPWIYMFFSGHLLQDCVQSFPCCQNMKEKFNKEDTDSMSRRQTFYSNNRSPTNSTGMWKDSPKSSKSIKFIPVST

Sequence of UDP-galactopyranose mutase (P9WIQ1 whole entry): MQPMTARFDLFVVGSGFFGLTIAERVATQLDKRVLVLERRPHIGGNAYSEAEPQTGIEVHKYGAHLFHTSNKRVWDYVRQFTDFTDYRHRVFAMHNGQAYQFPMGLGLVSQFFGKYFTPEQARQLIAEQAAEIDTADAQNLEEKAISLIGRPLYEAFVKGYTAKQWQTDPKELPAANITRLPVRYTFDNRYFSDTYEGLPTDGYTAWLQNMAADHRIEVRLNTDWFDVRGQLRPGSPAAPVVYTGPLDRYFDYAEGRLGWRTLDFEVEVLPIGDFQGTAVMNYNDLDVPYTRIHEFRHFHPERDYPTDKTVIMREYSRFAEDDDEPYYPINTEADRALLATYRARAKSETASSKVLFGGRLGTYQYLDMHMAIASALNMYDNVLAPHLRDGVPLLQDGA
Sequence of Cytochrome P450 2D6 (P10635 whole entry): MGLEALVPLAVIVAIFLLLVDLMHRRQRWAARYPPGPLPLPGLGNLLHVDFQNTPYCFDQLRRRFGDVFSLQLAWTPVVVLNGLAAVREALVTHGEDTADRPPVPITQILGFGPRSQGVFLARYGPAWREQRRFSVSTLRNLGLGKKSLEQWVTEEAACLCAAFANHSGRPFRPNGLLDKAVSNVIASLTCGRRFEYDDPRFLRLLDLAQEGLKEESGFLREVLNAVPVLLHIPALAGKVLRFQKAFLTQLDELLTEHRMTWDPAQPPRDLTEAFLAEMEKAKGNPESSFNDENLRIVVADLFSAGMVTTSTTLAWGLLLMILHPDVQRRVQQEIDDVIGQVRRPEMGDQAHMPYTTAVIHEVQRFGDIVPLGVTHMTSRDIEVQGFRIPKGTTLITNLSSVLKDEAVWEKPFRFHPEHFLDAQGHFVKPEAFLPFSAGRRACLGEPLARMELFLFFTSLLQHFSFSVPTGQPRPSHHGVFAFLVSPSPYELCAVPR
Sequence of Oxytocin receptor (P30559 whole entry): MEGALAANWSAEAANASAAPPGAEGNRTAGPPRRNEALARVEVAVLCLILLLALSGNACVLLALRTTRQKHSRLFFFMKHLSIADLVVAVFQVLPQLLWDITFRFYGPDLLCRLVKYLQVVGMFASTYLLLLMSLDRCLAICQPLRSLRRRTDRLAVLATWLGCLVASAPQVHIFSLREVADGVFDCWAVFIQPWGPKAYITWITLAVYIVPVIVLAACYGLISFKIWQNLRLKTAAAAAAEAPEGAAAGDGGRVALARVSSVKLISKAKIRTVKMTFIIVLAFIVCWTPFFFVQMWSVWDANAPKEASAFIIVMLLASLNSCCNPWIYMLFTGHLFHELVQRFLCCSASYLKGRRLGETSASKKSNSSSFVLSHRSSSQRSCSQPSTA

CCNC(=O)COC(=O)c1cc(O)nc2ccccc12
inconclusive: AC50 (Cytochrome P450 1A2) 15.8 µM | AC50 (Cytochrome P450 2D6)

CCOc1ccc(-[n+]2c(-c3ccc(OC)cc3)cn3c2CCCCC3)cc1
inactive: IC50 [1] > 80 µM | EC50 [3] > 150 µM | IC50 (Jurkat) > 80 µM
active: AC50 [2] 2.13 µM | AC50 (INS1) 0.312 µM | EC50 [4] 0.48 µM | AC50 (A-375) 48 µM

O=C1c2cccc3c(N4CCCCC4)ccc(c23)C(=O)N1CCO
active: EC50 (Oxytocin receptor) > 3.32 µM | EC50 [5] 65.2 µM | EC50 [6] 114 µM | EC50 [7] 164 µM | EC50 [8] 94.8 µM | EC50 [9] 16.5 µM | AC50 [10] 151 µM | EC50 [11] 67.5 µM | EC50 (Vasopressin V1a receptor) 4.75 µM
> 120 µM (not active): EC50 (H4)
